In one data set the test system is β-galactosidase. Kind of data set: Hydrolysis of probe by β-galactosidase (fluorescence turn-on). It is filed as biochemical. To be noted: KH2PO4 buffer pH 4.5, 30° C., excitation 365 nm, emission 542 nm. As to the method: Excited at 365 nm. Fluorescence intensity was measured at 542 nm.
After reaction of the probe with β-galactosidase, compound 9 is obtained.

Another data set concerns esterase in MCF-7 cells. Kind of data set: Esterase activity in living cells by Lyso-1 fluorescence imaging after inhibitor pretreatment. As to conditions: MCF-7 cells pretreated with 0.4 mM. It is filed as cell-based. As to the method:
(§1) For example, the addition of 0.1 mM AEBSF causes a fluorescence decrease in 10% at 532 nm compared with that without AEBSF. The higher concentrations of AEBSF such as 0.4 and 1.0 mM lead to larger fluorescence decrease of 40% and 65%, respectively. […] Thus, the probe Lyso-1 has a use to screen inhibitors of esterase.

For data set [1], the system named is esterase. In words: Effect of esterase inhibitor on esterase activity (Lyso-1 fluorescence readout). The format is biochemical. As to conditions: Lyso-1 10 μM, esterase 0.50 U mL^−1. As to the method:
as §1

Data set [2] has as its system esterase. In words: Fluorescence response of Lyso-1 upon incubation with esterase. It is filed as biochemical. As to the method:
The measurements were performed in 10 mM PBS (pH 7.4) with λex/em=356/532 nm.
For esterase at 0.50 U mL^−1, the fluorescence increase could reach a plateau in 15 min, which is sigmoidal in shape due to the two-stepwise sequential hydrolysis of Lyso-1 to 2. The fluorescence could only be fully generated after the two-step reaction completed and formation of intramolecular hydrogen bonds. […] The detection limit (3 S/m, in which S is the standard deviation of blank measurements, and m is the slope of the linear equation) is determined to be 2.4×10-3 U mL^−1.
(§2) The UV-vis absorption spectra were obtained using UV-vis spectrometer (Shimadzu, UV-1700, Japan). PL measurements were carried out on a Perkin-Elmer LS-55 equipped with a xenon lamp excitation source and a Hamamatsu (Japan) 928 PMT, using 90° angle detection for solution samples. The cells were imaged by fluorescence microscope (Nikon Al Confocal microscope). The time-dependence fluorescence scans of Lyso-1 were conducted with microplate reader (TECAN). ^1H and ^13C NMR spectra were measured on a Bruker ARX 400 NMR spectrometer. The molecular mass was acquired using ion trap-time-of-flight mass spectrometry (MS-IT-TOF) (Shimadzu).

Data set [3] concerns MCF-7 breast cancer cells. In words: Cell viability by MTT assay. It is filed as cell-based. To be noted: 1, 2, 4, 8, or 16 μM for 24 h. As to the method: The samples were incubated with 1, 2, 4, 8, or 16 μM Lyso-1 for 24 h, and the cell viabilities are close to 100% under the testing conditions, indicative of low cytotoxicity of the probe.
MCF-7 cancer cells were seeded in 96-well plates at a density of 4×10^4 cells/mL. After 24 h incubation, the cells were exposed to a series of doses of the probe Lyso-1 at 37° C. After the designated time intervals, the sample wells were washed twice with 1×PBS buffer and freshly prepared MTT solution (0.5 mg/mL, 100 μL) in culture medium was added into each sample well. The MTT medium solution was carefully removed after 3 h incubation in the incubator for the sample wells, whereas the control wells without addition of MTT solution were washed twice with 1×PBS buffer. DMSO (100 μL) was then added into each well and the plate was gently shaken for 10 min at room temperature to dissolve all the precipitates formed. The absorbance of individual wells at 570 nm was then monitored by the microplate Reader. The absorbance of MTT in the sample well was determined by the differentiation between the absorbance of the sample well and that of the respective control well. Cell viability was expressed by the ratio of the absorbance of MTT in the sample wells to that of the cells incubated with culture medium only.

Data set [4] is described as follows: Photostability by continuous confocal scanning of stained cells. It is filed as physicochemical. As to conditions: approximately 8 min continuous confocal scanning, stained MCF-7 cells; Lyso-1 1 μM, LysoTracker Red 50 nM. The procedure: FIGS. 10A-10E show (FIG. 10E) Signal loss (%) of fluorescent emission of Lyso-1 (1 μM) and LysoTracker® Red (50 nM) with increasing time. Excitation wavelength: 405 nm (for Lyso-1) and 560 nm (for LysoTracker® Red); emission filter: 515-560 nm (for Lyso-1) and 581-688 nm (for LysoTracker® Red); (FIGS. 10A-10D) fluorescent images of living MCF-7 cells stained with Lyso-1(1 μM) and LysoTracker® Red (50 nM) at 0 and 5 min.
It has been shown that the signal loss of Lyso-1 is less than 20% in approximately 8 min. In contrast, LysoTracker® Red lost almost approximately 70% of its fluorescence signal.
For Photostability study, MCF-7 cells were stained with 1.0 μM Lyso-1 and LysoTracker® Red for 1 h at 37° C. under 5% CO2. The changes of fluorescence intensity with scan time were determined by CLSM (Zeiss LSM 410, Jena, Germany).
Excitation wavelength: 405 nm (for Lyso-1, 1% laser power) and 560 nm (for LysoTracker® Red, 18% laser power); emission filter: 515-560 nm (for Lyso-1) and 581-688 nm (for LysoTracker® Red). The data were obtained from replicate experiments (n=3).

In a further data set the test system is lysosomes of MCF-7 cells. In words: In situ imaging of lysosomal esterase / colocalization with LysoTracker Red. The format is cell-based. As to the method: FIGS. 9A-9H show the colocalization imaging of MCF-7 cells stained with 1.0 μM Lyso-1 and 50 nM LysoTracker®-red for 30 min at 37° C. (FIG. 9A and FIG. 9E) Bright-field image. (FIG. 9B and FIG. 9F) Confocal image from Lyso-1 on channel 1 (λex=405 nm, λem=515-560 nm). (FIG. 9C and FIG. 9G) Confocal image from LysoTracker® Red on channel 2 (λex=559 nm, λem=585-610 nm). (FIG. 9D and FIG. 9H) Merged image of channels 1 and 2. Scale bar=20 μm.
A discrete labeling pattern that matched the distribution of lysosomes was obtained using Lyso-1 (FIG. 9a-d). […] To verify that the probes can selectively target lysosomes, the probe 6 without of lysosome targeting morpholines was also tested for cell imaging as a comparison. […] These experiments clearly verified that Lyso-1 can selectively target lysosome.
MCF-7 cells were seeded at a density of 2×10^4/well in the chamber (LAB-TEK, Chambered Coverglass System) and grown for 18 h at 37° C. in a humidified 5% CO2 incubator. The cells were washed twice with 1×PBS buffer and 0.3 mL fresh serum-free medium containing 1.0 μM Lyso-1 solution was then added to the chamber.
For co-staining between Lyso-1 and LysoTracker® Red, the MCF-7 cells were first incubated with 1.0 μM Lyso-1 solution for 2 h, and then the cells were rinsed and incubated in the medium containing 100 nM Lyso-tracker Red for 1 h.
Lyso-1 was excited at 405 nm (1% laser power) and the fluorescence was collected at 515-560 nm; LysoTracker® Red was excited at 560 nm (18% laser power) and fluorescence was collected at 581-688 nm.

The subject of data set [5] is lysosomal esterase in MCF-7 cells. Kind of data set: Real-time fluorescence imaging of lysosomal esterase activity. The format is cell-based. As to the method: As the incubation time elapses, the fluorescence intensity increases quickly which reaches a maximum at 8 min. The real-time fluorescence images shown in FIG. 12 indicate that the probe is non-fluorescent in the cell culture media.
[…] The intensity images of Lyso-1 were recorded with the emission in the range of 515-560 nm. Excitation wavelength: 405 nm.

Data set [6] has as its system esterase. In words: Selectivity of Lyso-1 fluorescence response, esterase versus interference substances. The format is biochemical. As to conditions: Lyso-1 10 μM; esterase 0.50 U mL^−1 vs MgCl2, CaCl2, vitamin C, H2O2, BO3−, lysozyme, cathepsin B; PBS pH 7.4, 37° C.
The test system of the next data set is mitochondria. In words: Mitochondria imaging. The format is cell-based. The procedure:
FIGS. 30A-30C show Colocalization imaging of Hela cells stained with 5.0 μM MitoGreen-2 and 50 nM MitoTracker®-red.
MitoGreen-1 and MitoGreen-2 can be easily modified by adding further reactive groups to detect certain enzymes or bioactive molecules.

A short description of data set [7]: Photoluminescence / AIE properties in solvent-water mixtures. The format is physicochemical.
Description: At ˜532 nm, there is almost no fluorescence for Lyso-1, whereas a strong emission with a 200-fold enhancement is observed for 2 from the keto tautomer ([…]). The weak emission at a short wavelength (λmax=˜441 nm) is from the enol tautomer of 2 (FIG. 1). It is noted that there is almost no overlap between the absorption and emission spectrum for salicyladazine dye 2, which is highly desirable for imaging applications.
With gradual addition of water into THF from fw=0 to 80 vol %, the emission intensity keeps slow increasing. […] At fw=99 vol %, a 14-fold enhancement of emission has been observed as compared to that in THF, showing an obvious AIE effect.
as §2

Regarding `OCC1O[C@@H](Oc2ccccc2/C=N/N=C/c2ccccc2OC2O[C@H](CO)[C@H](O)[C@H](O)[C@H]2O)C(O)C(O)C1O` (stereo in doubt) [β-gal-1, (2S,3S,4R,5S,6S)-2-(hydroxymethyl)-6-(2-((E)-((E)-(2-(((2R,3R,4S,5R,6R)-3,4,5-trihydroxy-6-(hydroxymethyl)tetrahydro-2H-pyran-2-yl)oxy)benzylidene)hydrazono)methyl)phenoxy)tetrahydro-2H-pyran-3,4,5-triol], in the data set with β-galactosidase, the “fluorescence upon reaction with β-galactosidase” value is “leads to fluorescence”.
Turning to `NCCc1ccc(S(=O)(=O)F)cc1` [AEBSF, 4-(2-aminoethyl)benzenesulfonyl fluoride], the “Lyso-1 fluorescence in pretreated cells” value with esterase in MCF-7 cells is listed as “obviously decreased fluorescence”. Moreover, the “fluorescence decrease at 532 nm compared with that without AEBSF” value in the data set with esterase [1] (0.1 mM AEBSF) is on record as 10%; in the data set with esterase [1] (0.4 mM AEBSF), 40%; with esterase [1] (1.0 mM AEBSF), 65%.
As for `CC(=O)Oc1cc(OCCCCN2CCOCC2)ccc1/C=N/N=C/c1ccc(OCCCCN2CCOCC2)cc1OC(C)=O` [Lyso-1, ((1E,1′E)-hydrazine-1,2-diylidenebis(methanylylidene))bis(3-(4-morpholinobutoxy)-6,1-phenylene) diacetate], the “fluorescence change without esterase (stability of the probe)” value in the data set with esterase [2] (control without esterase, same period of time, PBS pH 7.4) was “hardly changes”. The “time for fluorescence increase to reach a plateau” value in the data set with esterase [2] (esterase 0.50 U mL^−1, Lyso-1 10 μM, 10 mM PBS pH 7.4) was determined as 15 min. In addition, the cell viability in [3] is recorded as approximately 100%. In [4], the “signal loss of fluorescent emission” value was “less than 20%”. Besides, the “overlap between fluorescence images of probe and LysoTracker Red” value with lysosomes of MCF-7 cells (MCF-7 cells, 1.0 μM probe, no washing) is “excellent overlap”. Besides, the “incubation time at which fluorescence intensity reaches a maximum” value in data set [5] (1.0 μM, room temperature) is 8 min. Further, the “fluorescence induced by esterase relative to interferences (times brighter)” value in the data set with esterase [6] is recorded as 70-200 times.
Regarding `CN(C)CCNC(=O)CCc1ccc2n1[B-](F)(F)[N+]1=C(c3ccc[nH]3)C=CC1=C2` [LysoTracker® Red, reference compound], the “signal loss of fluorescent emission” value in data set [4] was “approximately 70%”.
For `Oc1cc(OCCCCCC[P+](c2ccccc2)(c2ccccc2)c2ccccc2)ccc1/C=N/N=C/c1ccc(OCCCCCC[P+](c2ccccc2)(c2ccccc2)c2ccccc2)cc1O.[Br-].[Br-]` [MitoGreen-1, (((((1E,1′E)-hydrazine-1,2-diylidenebis(methanylylidene))bis(3-hydroxy-4,1-phenylene))bis(oxy))bis(hexane-6,1-diyl))bis(triphenylphosphonium) bromide], in the data set on mitochondria, the binding to mitochondria result is recorded as “bind well to mitochondria”.
Same read-out and setting: next, `Oc1cc(OCCCCCC[n+]2ccccc2)ccc1/C=N/N=C/c1ccc(OCCCCCC[n+]2ccccc2)cc1O.[Br-].[Br-]` [MitoGreen-2, 1,1′-(((((1E,1′E)-hydrazine-1,2-diylidenebis(methanylylidene))bis(3-hydroxy-4,1-phenylene))bis(oxy))bis(hexane-6,1-diyl))bis(pyridin-1-ium) bromide]: “bind well to mitochondria”.
Consider `Oc1cc(OCCCCN2CCOCC2)ccc1/C=N/N=C/c1ccc(OCCCCN2CCOCC2)cc1O` [compound 2, 6,6′-((1E,1′E)-hydrazine-1,2-diylidenebis(methanylylidene))-bis(3-(4-morpholinobutoxy)-phenol)], for which the “quantum yield of keto tautomer emission (printed "0=")” value in data set [7] (10 μM in DMSO/water (1:99 v/v), ~532 nm) was found to be 9.6%. The “emission enhancement at ~532 nm compared with Lyso-1” value in data set [7] (10 μM in DMSO/water (1:99 v/v), λex=356 nm, keto tautomer emission) amounted to 200 fold. The “enhancement of emission at fw=99 vol % compared to that in THF (AIE effect)” value in data set [7] (THF/water, 10 μM, excitation 356 nm) stood at 14 fold.
For `CC(=O)Oc1cc(OCCCCBr)ccc1/C=N/N=C/c1ccc(OCCCCBr)cc1OC(C)=O` [compound 6, ((1E,1′E)-hydrazine-1,2-diylidenebis(methanylylidene))bis(3-(4-bromobutoxy)-6,1-phenylene) diacetate], the fluorescence of cells result in the data set on lysosomes of MCF-7 cells (MCF-7 cells incubated with 1.0 μM for 2 h) is on record as “Very weak fluorescence”. Further, the “staining pattern of cells” value with lysosomes of MCF-7 cells (MCF-7 cells incubated with 5.0 μM) was “non-specific staining of the entire cell”. The “time after which probe turns on in the entire cells” value in [5] (5 μM) amounted to 2 h.

The record behind these values is US20150192589A1, “METHOD USING FLUORESCENT TURN-ON PROBES FOR CELL-SPECIFIC DETECTION” (Agency for Science, Technology and Research, priority 2014, published 2015).
